Data published in US5352704A, “Guanidinobenzene derivatives” (priority 1989, dated 1994).

Assays:
[1] = system: human influenza virus A/WSN; experiment: Inhibitory action on plaque formation by human influenza virus; format: cell-based, human influenza virus A/WSN (in MDCK dog kidney cells); conditions: unidentified influenza virus, MDCK, 72 h, read-out: Inhibition ratio (%) of plaque formation
[2] = system: influenza virus A/Udron/72 (H3N2); format: in vivo, mole hamster; conditions: 10.0 mg/ml, 50 μl intranasal at 6, 11 and 24 hours after infection, 28 hours from infection, n = 5
[3] = related art (Virology, Raven Press, pp 323-348, 1985); cited from earlier work

| Compound | inhibition at 10 µg/mL [1] [%] | inhibition at 20 µg/mL [1] [%] | inhibition at 50 µg/mL [1] [%] | % Inhibition (virus in lung) ([2]; **P < 0.01, tTest) [%] | PFU/lung ([2]; control 4.8 ± 2.2 × 10^5) | efficacy on frequent use [3] | side effects [3] | inhibition at 12.5 µg/mL [1] [%] | inhibition at 25 µg/mL [1] [%] |
| --- | --- | --- | --- | --- | --- | --- | --- | --- | --- |
| N=C(N)Nc1ccc(C(=O)Nc2ccc3cc(C(=N)N)ccc3c2)cc1 [Compound B, 4-guanidinobenzoic acid 6-amidino-2-naphthylamide.2 methanesulfonate] | 31.4 | 67.6 | 82.4 | 99.0 | 5.0 ± 10.0 × 10^3 PFU/lung | – | – | – | – |
| NC12CC3CC(CC(C3)C1)C2 [amantadine] | – | – | – | – | – | the higher the frequency of use, the lower becomes efficacy | teratogenicity | – | – |
| N=C(N)Nc1ccc(C(=O)Nc2ccc(C(=N)N)cc2)cc1 [Compound A, 4-guanidinobenzoic acid 4-amidinobenzamide.2 methanesulfonate] | – | – | 80.8 | – | – | – | – | 2.9 | 51 |
